Reference: ChEMBL document CHEMBL4033742, “Novel 3-fluoro-6-methoxyquinoline derivatives as inhibitors of bacterial DNA gyrase and topoisomerase IV” (Bioorg Med Chem Lett, 2017)
Values after ≈ are worked out from the molar mass of the structure shown.

Assays:
[1] = Inhibition of Staphylococcus aureus DNA topoisomerase 4
[2] = Inhibition of Staphylococcus aureus DNA gyrase
[3] = Ratio of fAUC in fluoroquinolone-resistant Staphylococcus aureus infected mouse neutropenic thigh model to MIC for fluoroquinolone-resistant Staphylococcus aureus
[4] = test system: Staphylococcus aureus; assay: Antibacterial activity against Staphylococcus aureus containing DNA gyrase M121K mutations; format: functional
[5] = test system: Staphylococcus aureus; assay: Antibacterial activity against Staphylococcus aureus; format: functional
[6] = test system: Streptococcus pyogenes; assay: Antibacterial activity against Streptococcus pyogenes; format: functional
[7] = Fraction unbound in mouse plasma; format: ADME, cell-free
[8] = Fraction unbound in rat plasma; format: ADME, cell-free
[9] = Fraction unbound in human plasma; format: ADME, cell-free
[10] = Clearance in mouse at 10 mg/kg, iv; format: ADME, organism-based; conditions: in vivo
[11] = Volume of distribution at steady state in mouse at 10 mg/kg, iv; format: ADME, organism-based; conditions: in vivo, read-out: Vdss
[12] = Half life in mouse at 10 mg/kg, iv; format: ADME, organism-based; conditions: in vivo
[13] = Half life in rat at 2 mg/kg, iv; format: ADME, organism-based; conditions: in vivo
[14] = test system: Staphylococcus aureus; assay: Antibacterial activity against fluoroquinolone-resistant Staphylococcus aureus infected in mouse neutropenic thigh model assessed as static dose required for bacterial stasis; format: functional
[15] = biological target: Voltage-gated inwardly rectifying potassium channel KCNH2 (Homo sapiens, UniProt Q12809); assay: Inhibition of human ERG
Voltage-gated inwardly rectifying potassium channel KCNH2, sequence (Q12809 whole entry): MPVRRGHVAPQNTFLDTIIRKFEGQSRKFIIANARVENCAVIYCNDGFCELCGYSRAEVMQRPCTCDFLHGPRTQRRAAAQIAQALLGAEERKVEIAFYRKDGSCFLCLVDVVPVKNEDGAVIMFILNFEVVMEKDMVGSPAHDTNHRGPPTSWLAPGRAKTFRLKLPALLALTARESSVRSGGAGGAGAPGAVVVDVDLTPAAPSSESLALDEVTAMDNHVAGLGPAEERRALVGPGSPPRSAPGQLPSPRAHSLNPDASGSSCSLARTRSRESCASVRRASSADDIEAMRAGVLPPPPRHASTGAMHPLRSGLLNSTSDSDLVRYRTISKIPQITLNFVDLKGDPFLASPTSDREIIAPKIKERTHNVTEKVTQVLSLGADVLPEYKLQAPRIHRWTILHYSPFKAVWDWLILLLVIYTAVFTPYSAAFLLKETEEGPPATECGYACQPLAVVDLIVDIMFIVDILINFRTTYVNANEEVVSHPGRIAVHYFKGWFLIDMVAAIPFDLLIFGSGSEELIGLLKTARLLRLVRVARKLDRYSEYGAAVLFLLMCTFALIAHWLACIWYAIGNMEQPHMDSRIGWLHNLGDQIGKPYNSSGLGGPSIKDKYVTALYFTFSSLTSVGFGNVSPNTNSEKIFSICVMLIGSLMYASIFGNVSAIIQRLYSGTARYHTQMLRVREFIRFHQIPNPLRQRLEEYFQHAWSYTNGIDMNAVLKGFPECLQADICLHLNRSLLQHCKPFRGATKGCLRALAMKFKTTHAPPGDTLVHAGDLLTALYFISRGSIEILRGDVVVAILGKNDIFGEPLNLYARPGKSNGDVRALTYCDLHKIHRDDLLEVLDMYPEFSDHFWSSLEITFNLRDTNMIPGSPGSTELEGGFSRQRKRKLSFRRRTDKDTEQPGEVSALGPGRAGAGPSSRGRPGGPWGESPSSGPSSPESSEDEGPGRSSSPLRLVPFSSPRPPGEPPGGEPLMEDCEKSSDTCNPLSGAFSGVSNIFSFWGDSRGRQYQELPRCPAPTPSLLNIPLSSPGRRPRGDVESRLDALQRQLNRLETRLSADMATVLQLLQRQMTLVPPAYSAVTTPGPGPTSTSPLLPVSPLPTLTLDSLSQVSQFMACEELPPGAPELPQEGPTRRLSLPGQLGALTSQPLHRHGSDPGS

[16] = test system: Staphylococcus aureus; assay: Antibacterial activity against Staphylococcus aureus containing DNA gyrase D83N mutations; format: functional
[17] = test system: Staphylococcus aureus; assay: Antibacterial activity against fluoroquinolone-sensitive Staphylococcus aureus 1146; format: functional
[18] = test system: Staphylococcus aureus; assay: Antibacterial activity against fluoroquinolone-resistant Staphylococcus aureus 1095; format: functional
[19] = Clearance in rat at 2 mg/kg, iv; format: ADME, organism-based; conditions: in vivo
[20] = Volume of distribution at steady state in rat at 2 mg/kg, iv; format: ADME, organism-based; conditions: in vivo, read-out: Vdss

Row | SMILES | IC50 [1] [µM] | IC50 [2] [µM] | MIC [4] [µg/mL] | MIC90 [5] [µg/mL] | MIC90 [6] [µg/mL] | MIC [16] [µg/mL] | MIC [17] [µg/mL] | MIC [18] [µg/mL] | other results
1 | COc1ccc2ncc(F)c([C@@H](O)CC[C@@H]3CCN(CCSc4cccs4)C[C@@H]3C(=O)O)c2c1 | 30.4 | 1.56 | – | – | – | – | – | – | –
2 | COc1ccc2nccc([C@@H](O)CC[C@@H]3CCN(CCSc4cccs4)C[C@@H]3C(=O)O)c2c1 | 84.6 | 2.42 | – | – | – | – | – | – | –
3 | N#Cc1ccc2ccc(=O)n(CCN3CC[C@H](NCc4cc5c(cn4)OCCO5)[C@H](F)C3)c2c1 | – | – | – | – | – | – | – | – | Ratio [3]: 36
4 | COc1ccc2nccc([C@@H](O)CC[C@@H]3CCN(C4CC(c5ccccc5)C4)C[C@@H]3C(=O)O)c2c1 (stereo not given in full) | 32.1 | 1.19 | ≥ 64 | 0.25 to 1 (≈ 0.527 to 2.11 µM) | 1 to 2 (≈ 2.11 to 4.21 µM) | – | – | – | fraction unbound [7]: 0.129 to 0.246; fraction unbound [8]: 0.296 to 0.437; fraction unbound [9]: 0.079 to 0.155; clearance [10]: 36 mL/min/kg; Vd [11]: 1.06 L/kg; half-life [12]: 20.4 min; half-life [13]: 19.8 min; Activity [14]: 123.1 mg/kg/day
5 | COc1ccc2nccc([C@@H](O)CC[C@@H]3CCN(C4CC(c5c(F)cccc5F)C4)C[C@@H]3C(=O)O)c2c1 (stereo not given in full) | 100 to 120 | 2.93 | – | – | – | – | – | – | –
6 | COc1ccc2nccc([C@@H](O)CC[C@@H]3CCN(C4CC(c5cc(F)ccc5F)C4)C[C@@H]3C(=O)O)c2c1 (stereo not given in full) | 9.62 | 3 | – | – | – | – | – | – | –
7 | O=c1ccc2ncc(F)c3c2n1C[C@@]3(O)CN1CCC(NCc2cc3c(cn2)OCCO3)CC1 | 4.96 | 0.448 | 8 (≈ 17.1 µM) | 0.5 (≈ 1.07 µM) | 0.125 (≈ 0.267 µM) | 4 (≈ 8.56 µM) | 0.125 (≈ 0.267 µM) | 0.31 (≈ 0.663 µM) | IC50 [15]: > 300 µM
8 | COc1ccc2ncc(F)c([C@@H](O)CC[C@@H]3CCN(C4CC(c5ccccn5)C4)C[C@@H]3C(=O)O)c2c1 (stereo not given in full) | 50 | 3.13 | – | – | – | > 64 | 1 (≈ 2.03 µM) | 16 (≈ 32.4 µM) | –
9 | COc1ccc2ncc(F)c([C@@H](O)CC[C@@H]3CCN(C4CC(c5ccccc5F)C4)C[C@@H]3C(=O)O)c2c1 (stereo not given in full) | 19 | 0.78 | 16 (≈ 31.3 µM) | 0.125 (≈ 0.245 µM) | 0.5 (≈ 0.979 µM) | 16 (≈ 31.3 µM) | ≤ 0.0625 | 0.125 (≈ 0.245 µM) | –
10 | COc1ccc2ncc(F)c([C@@H](O)CC[C@@H]3CCN(C4CC(c5c(F)cccc5F)C4)C[C@@H]3C(=O)O)c2c1 (stereo not given in full) | 18.3 | 4.61 | 2.8 (≈ 5.3 µM) | 0.125 (≈ 0.236 µM) | 0.5 (≈ 0.946 µM) | 3.2 (≈ 6.05 µM) | ≤ 0.063 | 0.079 (≈ 0.149 µM) | IC50 [15]: 45.3 µM
11 | COc1ccc2ncc(F)c([C@@H](O)CC[C@@H]3CCN(C4CC(c5cccs5)C4)C[C@@H]3C(=O)O)c2c1 (stereo not given in full) | 9.4 | 0.78 | 16 (≈ 32.1 µM) | 0.125 (≈ 0.251 µM) | 0.5 (≈ 1 µM) | 11.3 (≈ 22.7 µM) | ≤ 0.0625 | 0.125 (≈ 0.251 µM) | –
12 | COc1ccc2ncc(F)c([C@@H](O)CC[C@@H]3CCN(C4CC(c5cc(F)ccc5F)C4)C[C@@H]3C(=O)O)c2n1 (stereo not given in full) | 5.09 | 1.43 | 2.3 (≈ 4.34 µM) | 0.125 to 0.25 (≈ 0.236 to 0.472 µM) | 0.5 to 1 (≈ 0.944 to 1.89 µM) | 2.5 (≈ 4.72 µM) | ≤ 0.0625 | 0.088 (≈ 0.166 µM) | IC50 [15]: 45 µM; fraction unbound [7]: 0.131 to 0.242; fraction unbound [8]: 0.121 to 0.189; fraction unbound [9]: 0.036 to 0.037; clearance [10]: 34 mL/min/kg; Vd [11]: 0.825 L/kg; half-life [12]: 16.8 min; clearance [19]: 32.7 mL/min/kg; Vd [20]: 1.89 L/kg; half-life [13]: 40.2 min; Activity [14]: 80.7 mg/kg/day
